Patent US20250127904A1, “SIGLEC LIGANDS, CONJUGATES, AND METHODS OF USE THEREOF” (Osprey Biopharmaceuticals, Inc., priority 2023, published 2025)

Key:
[1] = biological target: T1, biotinylated mouse siglec-2-Fc-Avi (Mus musculus, UniProt P35329); test: SPR binding to mouse siglec-2/CD22; settings: steady-state analysis, read-out: Mouse CD22 affinity
T1 construct: made in house
T1 sequence (P35329 22-708 limits assumed): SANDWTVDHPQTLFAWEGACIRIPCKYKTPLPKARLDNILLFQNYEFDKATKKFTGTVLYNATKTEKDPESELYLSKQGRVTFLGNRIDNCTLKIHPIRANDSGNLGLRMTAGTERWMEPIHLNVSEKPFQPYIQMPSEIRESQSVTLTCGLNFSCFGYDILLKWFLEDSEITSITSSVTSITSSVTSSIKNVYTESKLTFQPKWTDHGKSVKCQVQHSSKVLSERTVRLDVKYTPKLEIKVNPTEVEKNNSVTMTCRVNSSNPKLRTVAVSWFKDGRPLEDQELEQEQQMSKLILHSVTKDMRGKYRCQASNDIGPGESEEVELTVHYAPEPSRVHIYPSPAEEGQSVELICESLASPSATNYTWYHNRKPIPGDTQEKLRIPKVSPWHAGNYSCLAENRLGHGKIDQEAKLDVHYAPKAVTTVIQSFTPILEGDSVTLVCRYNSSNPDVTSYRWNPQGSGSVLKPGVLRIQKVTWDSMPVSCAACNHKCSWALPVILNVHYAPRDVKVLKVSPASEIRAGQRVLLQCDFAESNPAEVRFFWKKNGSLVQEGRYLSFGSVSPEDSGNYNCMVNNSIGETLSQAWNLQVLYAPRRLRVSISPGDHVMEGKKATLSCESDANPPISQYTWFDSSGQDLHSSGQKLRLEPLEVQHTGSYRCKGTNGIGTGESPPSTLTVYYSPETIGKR
Protocol: (§1) The following proteins were used for CD22 ligand binding: biotinylated human siglec-2/CD22 protein-His-Avitag (Acro Biosystems, Cat #SI2-H82E3), biotinylated mouse siglec-2-Fc-Avi (in-house production), and recombinant cynomolgus siglec-2/CD22 His-tag (R&D systems, Cat #9864-SL-050). Prior to immobilization, CD22 proteins were treated with SialoExo (Genovis, Cat #G1-SM1-020) for 4 hours at 37° C. to remove native sialic acid residues.
(§2) Capture of biotinylated CD22 constructs was performed using a Cytiva SA chip (BR100398) on a Biacore 8K instrument. Human siglec 2 was immobilized on channels 1-4 and mouse siglec 2 on channels 5-8 on the active flow cell (2) and the reference flow cell (1) was immobilized with biotinylated human FGFR2 Fc Avi, an unrelated protein, to account for any nonspecific binding. Human siglec 2 and Mouse siglec 2 were diluted in running buffer to 20 μg/mL and injected on the active flow cell (2) for 300 seconds at 5 μL/min, yielding about 3500 RU of captured constructs.
(§3) Binding experiments of siglec-ligand conjugated proteins or Siglec ligand compounds were performed on the surfaces prepared above in 10 mM HEPES, 150 mM NaCl, 0.05% Tween-20, pH 7.5, 1% DMSO as the running buffer. Compounds were serially diluted in running buffer from 50 μM to 97.6 nM and injected over both the reference and active flow cells for 90 seconds at 30 μL/min. The compounds were then allowed to dissociate from the surface for 120 seconds. No regeneration was required as the compounds completely dissociated from the surface after 30 seconds. Solvent correction was performed using 0.5, 1, 1.5, and 2% DMSO spike into running buffer without DMSO. Data was analyzed using steady-state analysis in Biacore Insight Evaluation Software, version 3.0.

[2] = biological target: T2, biotinylated human siglec-2/CD22 protein-His-Avitag (Homo sapiens, UniProt P20273); test: SPR binding to human siglec-2/CD22; settings: steady-state analysis, read-out: Human CD22 affinity
T2 construct: purchased Acro Biosystems SI2-H82E3
T2 sequence (P20273 20-847): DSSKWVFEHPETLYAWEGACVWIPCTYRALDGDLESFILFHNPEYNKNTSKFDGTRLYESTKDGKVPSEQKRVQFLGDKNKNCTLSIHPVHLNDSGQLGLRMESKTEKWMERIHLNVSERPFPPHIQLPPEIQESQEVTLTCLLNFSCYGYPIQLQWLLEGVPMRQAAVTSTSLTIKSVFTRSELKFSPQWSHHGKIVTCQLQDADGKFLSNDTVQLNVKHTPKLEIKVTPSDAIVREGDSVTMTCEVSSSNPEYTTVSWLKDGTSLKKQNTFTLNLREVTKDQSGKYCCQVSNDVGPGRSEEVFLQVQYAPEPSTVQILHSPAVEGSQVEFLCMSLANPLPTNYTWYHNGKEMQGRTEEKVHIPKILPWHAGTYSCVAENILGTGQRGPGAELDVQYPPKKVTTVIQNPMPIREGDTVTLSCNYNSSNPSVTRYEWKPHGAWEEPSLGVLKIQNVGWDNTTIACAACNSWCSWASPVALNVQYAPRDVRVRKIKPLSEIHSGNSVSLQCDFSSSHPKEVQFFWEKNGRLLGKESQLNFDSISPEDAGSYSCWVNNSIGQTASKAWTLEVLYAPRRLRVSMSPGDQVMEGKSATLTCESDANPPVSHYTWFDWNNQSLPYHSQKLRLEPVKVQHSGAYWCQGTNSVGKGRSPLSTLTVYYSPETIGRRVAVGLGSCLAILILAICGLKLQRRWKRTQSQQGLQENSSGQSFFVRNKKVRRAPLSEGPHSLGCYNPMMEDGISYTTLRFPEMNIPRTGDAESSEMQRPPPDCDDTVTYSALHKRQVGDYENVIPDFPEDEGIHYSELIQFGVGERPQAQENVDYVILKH
Protocol: as §1, §2, §3

Row | Compound | Kd [1] | Kd [2]
1 | O=C(Cc1ccc(-c2cn(CCO)nn2)cc1)NC[C@@H](O)[C@@H](O)[C@@H]1O[C@@](OCc2ccccc2)(C(=O)O)C[C@H](O)[C@H]1NC(=O)CO [Compound 2, (2R,4S,5R,6R)-2-(benzyloxy)-6-((1R,2R)-1,2-dihydroxy-3-(2-(4-(1-(2-hydroxyethyl)-1H-1,2,3-triazol-4-yl)phenyl)acetamido)propyl)-4-hydroxy-5-(2-hydroxyacetamido)tetrahydro-2H-pyran-2-carboxylic acid] | 1000 to 10000 nM | 1000 to 10000 nM
2 | C#CCOc1ccc(CC(=O)NC[C@@H](O)[C@@H](O)[C@@H]2O[C@@](OCc3ccccc3)(C(=O)O)C[C@H](O)[C@H]2NC(=O)CO)cc1 [Compound 4, (2R,4S,5R,6R)-2-(benzyloxy)-6-((1R,2R)-1,2-dihydroxy-3-(2-(4-(prop-2-yn-1-yloxy)phenyl)acetamido)propyl)-4-hydroxy-5-(2-hydroxyacetamido)tetrahydro-2H-pyran-2-carboxylic acid] | 1000 to 10000 nM | 1000 to 10000 nM
3 | O=C(Cc1ccc(OCc2cn(CCO)nn2)cc1)NC[C@@H](O)[C@@H](O)[C@@H]1O[C@@](OCc2ccccc2)(C(=O)O)C[C@H](O)[C@H]1NC(=O)CO [Compound 5, (2R,4S,5R,6R)-2-(benzyloxy)-6-((1R,2R)-1,2-dihydroxy-3-(2-(4-((1-(2-hydroxyethyl)-1H-1,2,3-triazol-4-yl)methoxy)phenyl)acetamido)propyl)-4-hydroxy-5-(2-hydroxyacetamido)tetrahydro-2H-pyran-2-carboxylic acid] | 1000 to 10000 nM | 1000 to 10000 nM
4 | C#CCCCCCCC#Cc1ccc(CC(=O)NC[C@@H](O)[C@@H](O)[C@@H]2O[C@@](OCc3ccccc3)(C(=O)O)C[C@H](O)[C@H]2NC(=O)CO)cc1 [Compound 6, (2R,4S,5R,6R)-2-(benzyloxy)-6-((1R,2R)-3-(2-(4-(deca-1,9-diyn-1-yl)phenyl)acetamido)-1,2-dihydroxypropyl)-4-hydroxy-5-(2-hydroxyacetamido)tetrahydro-2H-pyran-2-carboxylic acid] | 1000 to 10000 nM | 1000 to 10000 nM

The remaining lines, values ahead:

Row | Kd [1] | Kd [2] | Compound
5 | 1000 to 10000 nM | 1000 to 10000 nM | C#Cc1ccc(CC(=O)NC[C@@H](O)[C@@H](O)[C@@H]2O[C@@](OCCCCCCN)(C(=O)O)C[C@H](O)[C@H]2NC(=O)CO)cc1 [Compound 10, (2R,4S,5R,6R)-2-((6-aminohexyl)oxy)-6-((1R,2R)-3-(2-(4-ethynylphenyl)acetamido)-1,2-dihydroxypropyl)-4-hydroxy-5-(2-hydroxyacetamido)tetrahydro-2H-pyran-2-carboxylic acid]
6 | < 1000 nM | < 1000 nM | C#Cc1ccc(CC(=O)NC[C@@H](O)[C@@H](O)[C@@H]2O[C@@](OCCCCCCNc3c(NCCOC)c(=O)c3=O)(C(=O)O)C[C@H](O)[C@H]2NC(=O)CO)cc1 [Compound 26, (2R,4S,5R,6R)-6-((1R,2R)-3-(2-(4-ethynylphenyl)acetamido)-1,2-dihydroxypropyl)-4-hydroxy-5-(2-hydroxyacetamido)-2-((6-((2-((2-methoxyethyl)amino)-3,4-dioxocyclobut-1-en-1-yl)amino)hexyl)oxy)tetrahydro-2H-pyran-2-carboxylic acid]
7 | < 1000 nM | < 1000 nM | C#Cc1ccc(CC(=O)NC[C@@H](O)[C@@H](O)[C@@H]2O[C@@](OCCCCCCNC(=O)CCCC)(C(=O)O)C[C@H](O)[C@H]2NC(=O)CO)cc1 [Compound 29, (2R,4S,5R,6R)-6-((1R,2R)-3-(2-(4-ethynylphenyl)acetamido)-1,2-dihydroxypropyl)-4-hydroxy-5-(2-hydroxyacetamido)-2-((6-pentanamidohexyl)oxy)tetrahydro-2H-pyran-2-carboxylic acid]
